Data: BigSolDB 2.1

Cc1ccc[n+](CCCC[n+]2cccc(C)c2)c1.F[P-](F)(F)(F)(F)F.F[P-](F)(F)(F)(F)F
solubility (mole fraction)
Details	288.15 K	293.15 K	298.15 K	303.15 K	308.15 K	313.15 K	318.15 K	323.15 K	328.15 K	333.15 K
in 2-butanone	0.00289	0.00328	0.00379	0.00439	0.00496	0.00556	0.00623	0.00706	0.00771	0.00856
in acetophenone	–	–	0.000748	0.00103	0.00138	0.00183	0.0024	0.00311	0.00428	0.00556
in acetylacetone	0.00119	0.00157	0.00214	0.00282	0.00368	0.00462	0.00598	0.00807	0.0101	0.0136
in cyclohexanone	0.000205	0.000333	0.00051	0.000746	0.000967	0.00121	0.00146	0.00164	0.0018	0.00186
in water	2e-06	3e-06	5e-06	8e-06	1.4e-05	2.4e-05	3.9e-05	6.3e-05	9.8e-05	0.000157
